The subject of assay [1] is LAT1. The settings on record: experimental value, compared with MM-PBSA prediction.
The target of assay [2] is T1, recombinant human LAT1 (Homo sapiens, UniProt Q01650).
T1 construct: made in house; host or cells: E. coli
Briefly: Inhibition of LAT1 mediated [3H]-His transport in proteoliposomes reconstituted with recombinant purified human LAT1. It is filed as biochemical. Also noted: Dose-response analysis, Mean / Dose-response analysis, single experiments: unit not given here. Conditions: for % Residual Activity: 100 µM concentration, n = 3, Table S6; for LAT1 inhibition, activity in words: 100 μM compound, [3H]-His uptake in proteoliposomes; for Dose-response analysis, single experiments: Exp. 1, Exp. 2, Exp. 3 in this order; for Dose-response analysis, Mean: mean of Exp. 1-3. As for the experimental part:
All 30 compounds were evaluated for their potency to inhibit LAT1 mediated histidine transport in proteoliposomes reconstituted with recombinant purified human LAT1 (see Methods). […]
Human LAT1 was over-expressed in E. coli and was purified as previously described. In brief, solubilized cell lysate was centrifuged (12,000× g, 10 min, 4 °C); supernatant was applied on a His-Trap HP column (5 mL Ni Sepharose) connected to ÄKTA start system. The column was equilibrated with 10 mL buffer (20 mM Tris HCl pH 8.0, 10% glycerol, 200 mM NaCl, 0.1% sarkosyl) prior to supernatant application. The column was washed with 10 mL buffer (20 mM Tris HCl pH 8.0, 10% glycerol, 200 mM NaCl, 0.05% DDM, and 2 mM DTE) and the protein was eluted with the same buffer plus 400 mM imidazole. Purified protein was desalted, in order to remove imidazole, using a PD-10 column in a buffer containing 20 mM Tris HCl pH 8.0, 10% glycerol, 0.05% DDM and 10 mM DTE.
The purified human LAT1 was reconstituted by detergent removal approach using the batch-wise method, as previously described. In brief, the initial mixture contained: 4 μg of purified protein, 100 μL of 10% C12E8, 100 μL of 10% egg yolk phospholipids (w/v) in the form of liposomes that were prepared as previously described, 20 mM Tris HCl pH 7.5, and 10 mM L-His in a final volume of 700 μL. This mixture was incubated with 0.5 g of Amberlite XAD-4 for 90 min at 23 °C, 1200 rpm to retain detergent.
To perform transport assays, the external substrate was removed by gel filtration chromatography: 600 μL of proteoliposomes were passed through a Sephadex G-75 column (0.7 cm diameter × 15 cm height) pre-equilibrated with 20 mM Tris HCl pH 7.5 and a concentration of sucrose to balance internal osmolarity. Transport was started adding 5 μM [^3H]-His to proteoliposomes and stopped after 30 min according to the stop inhibitor method, as previously described. In brief, in controls 1.5 µM HgCl2 was added at time zero and radioactivity was subtracted to samples for calculating net transport. After stopping the transport reaction, 100 μL of proteoliposomes was subjected to gel filtration chromatography using a Sephadex G-75 column (0.6 cm diameter × 8 cm height), to separate the external from the internal radioactivity. Proteoliposomes were eluted with 1 mL 50 mM NaCl in 4 mL scintillation mixture and counted. […] Protein concentration was estimated by Chemidoc imaging system1 [104] to calculate the human LAT1 specific activity.

The target of assay [3] is T1, recombinant human LAT1. Conditions: cited from earlier work.
Assay [4] has as its system cancer growth. Also noted: method as in PMID 21187458, PMID 18520037, PMID 18813831. Conditions: cited from earlier work.
Assay [5] relates to LAT1. The settings on record: S2 cells; cited from earlier work.
Assay [6] deals with LAT1. Conditions: human colon cancer (HT-29) cells; cited from earlier work.

By IC50 is commonly meant the concentration at which inhibition is half-maximal. In general, inhibition refers to the change of the read-out against control, counted positive when it falls.

SMILES strings stand for the structures. Several values for one entry are separate records, joined by “and”; a condition that tells them apart may be missing. Identical values can stand only once. Like-named read-outs stand apart in the source and are kept apart here. Where only a bound is given, the exact number is not on record here.

T1 sequence (Q01650 whole entry): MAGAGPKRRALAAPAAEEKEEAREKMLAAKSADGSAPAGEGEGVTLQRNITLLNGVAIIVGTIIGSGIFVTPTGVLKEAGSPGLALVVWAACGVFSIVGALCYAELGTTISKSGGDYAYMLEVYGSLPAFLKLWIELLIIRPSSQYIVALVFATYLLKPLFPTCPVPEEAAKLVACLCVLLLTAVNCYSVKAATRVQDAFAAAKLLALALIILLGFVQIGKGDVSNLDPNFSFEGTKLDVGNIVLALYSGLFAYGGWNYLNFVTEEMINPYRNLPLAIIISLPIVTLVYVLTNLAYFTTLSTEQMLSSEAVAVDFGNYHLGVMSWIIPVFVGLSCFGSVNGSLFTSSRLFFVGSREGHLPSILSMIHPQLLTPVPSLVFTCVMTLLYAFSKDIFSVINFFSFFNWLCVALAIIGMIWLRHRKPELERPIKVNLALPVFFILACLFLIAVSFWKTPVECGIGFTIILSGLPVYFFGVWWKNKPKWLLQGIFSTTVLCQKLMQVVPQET

`NC1(C(=O)O)CCc2ccccc2C1` (stereo not shown) [Compound 8, 2-Amino-1,2,3,4-tetrahydro-2-naphthoic acid]: in assay [1], the “times more potent than 10” value is listed as 9.

In the case of `NC1(C(=O)O)CC2CCC1C2` (stereo not shown) [Compound 1, 2-Amino-2-norbornanecarboxylic acid], the “% Residual Activity” value in assay [2] was determined as 6.1%. Also, the half-inhibitory concentration (IC50) in assay [3] (same test system, determined previously) is 6.8 ± 0.27 µM. For the same molecule, the “concentration required to attain antiproliferative effects” value in assay [4] is listed as greater than 10 mM.

Turning to `FC(F)(F)Oc1ccc(/N=c2\ssnc2Cl)cc1` [Compound 3, (Z)-4-chloro-N-(4-(trifluoromethoxy)phenyl)-5H-1,2,3-dithiazol-5-imine], in assay [3], the “inhibition of human LAT1 reconstituted in proteoliposomes, in words” value is given as “potent inhibition”.

With `COc1ccc(CSCC(N)C(=O)O)cc1Br` (stereo not shown) [Compound 28], the IC50 in assay [2] (5 μM [3H]-His, proteoliposomes containing 10 mM His, mean ± S.D., three experiments) is 33.2 ± 4.5 µM. The inhibition at 100 µM in assay [2] (100 µM compound) fell in the range of 80 to 100%. Moreover, the “LAT1 inhibition, activity in words” value in assay [2] is given as “highly active”. In assay [2], the “% Residual Activity” value turned out to be 12.93%. The “Dose-response analysis, single experiments” value in assay [2] (0.1 [] M compound) is 98.56 and 118.69 and 87.20; in assay [2] (0.2 [] M compound), 109.35 and 122.43 and 93.48; in assay [2] (0.5 [] M compound), 112.59 and 110.90 and 85.27; in assay [2] (1 [] M compound) it was 120.86 and 119.63 and 97.34; in assay [2] (2.5 [] M compound) it was 84.89 and 85.98 and 94.20; in assay [2] (5 [] M compound), 79.14 and 103.43 and 83.33. In addition, the “Dose-response analysis, single experiments” value is 96.40 and 89.72 and 73.19 in assay [2] (10 [] M compound); 57.91 and 52.02 and 47.58 in assay [2] (25 [] M compound). Also, the “Dose-response analysis, Mean” value is reported as 101.48 in assay [2] (0.1 [] M compound); 108.42 in assay [2] (0.2 [] M compound); 102.92 in assay [2] (0.5 [] M compound); 112.61 in assay [2] (1 [] M compound); 88.36 in assay [2] (2.5 [] M compound); 88.63 in assay [2] (5 [] M compound). Moreover, the “Dose-response analysis, Mean” value in assay [2] (10 [] M compound) is reported as 86.44; in assay [2] (25 [] M compound) it was 52.51; in assay [2] (50 [] M compound), 38.86; in assay [2] (100 [] M compound) it was 24.50.

As to `Nc1cc(COc2c(Cl)cc(C[C@H](N)C(=O)O)cc2Cl)c2oc(-c3ccccc3)nc2c1` [Compound 2], the concentration for half-maximal inhibition (IC50) in assay [5] was 0.14 µM; in assay [6], 0.06 µM.

As to `N[C@@H](Cc1ccc2ccccc2n1)C(=O)O` [Compound 37], in assay [2], the “LAT1 inhibition, activity in words” value is given as “slightly active” and the “% Residual Activity” value is on record as 65.31%.

The values are drawn from article PMC6337383, “Discovery of Potent Inhibitors for the Large Neutral Amino Acid Transporter 1 (LAT1) by Structure-Based Methods” (International Journal of Molecular Sciences, 2018).
